Results as given in patent US6548059B1, “Promotion of proliferation of adult corneal endothelial cells” (The Schepens Eye Research Institute, Inc., priority 1999, dated 2003).
Read-outs that look alike come from different tables or passages of the source.

Tests used:
[1] = system: corneal endothelial cells; conditions: for Avg. % KI67 (+) Cells: 24 hr pre-incubation in mitogen-containing medium, n = 2-3 donor corneas
Experimental: (§1) Twenty-one human corneas were obtained from donors of about 52-75 years of age (Avg.=65.1 years old). Whole corneas were usually cut in quarters to increase sample size. In some cases, whole corneas were used as controls. Corneal pieces were placed endothelial-side up in individual wells of a 24-well tissue culture plate (Falcon, Lincoln Park, N.J.). Pieces were incubated for about 24 hrs in Medium-199 containing 10% fetal bovine serum (FBS), 10 ng/ml epidermal growth factor (EGF) (Upstate Biotechnologies, Lake Placid, N.Y.), 20 ng/ml fibroblast growth factor(FGF) (pituitary-derived, Biomedical Research Technologies, Stoughton, Mass.), and […] gentamicin to stabilize the endothelium prior to study. Ethylenediamine tetraacetic acid (e.g., di-sodium EDTA.2 H2O) was prepared in Hank's Balanced Salt Solution (HBSS) without calcium chloride, magnesium chloride, or magnesium sulfate: Life Technologies, Grand Island, N.Y.), adjusted to pH7.4, and added to the culture medium at a final concentration of 0.02, 0.2, or 2.0 mg/ml. Corneas were treated with EDTA for 10, 30, or 60 min and then returned to culture medium for up to 96 hrs. Negative controls for EDTA treatment included exposing corneal pieces to all manipulations and incubation conditions, including 1 hour in HBSS, but without EDTA. All corneas were maintained at 37° C. in a 5% carbon dioxide, humidified atmosphere until removal for analysis of cell cycle progression.
Immunolocalization was carried out using the same antibodies and protocols as described previously for ZO-1 (10) and Ki67 (19). Corneal pieces stained for Ki67 were mounted in medium containing propidium iodide (PI: Vector Laboratories, Inc., Burlingame, Calif.) to visualize all nuclei. In some cases, samples were double-stained for both Ki67 and ZO-1. Slides were viewed using a Leica TCS 4D confocal microscope equipped with a Leitz DMRBE laser and SCANware 4.2 software (Leica Lasertechnik, Heidelberg, Germany). Images were collected from the central region of the corneal pieces away from the cut edges using a 16×, 40×, or 100×-oil immersion lens. Laser power and gain controls were adjusted to achieve an optimal range of output signal intensity for each channel. Confocal images were collected and micrographs were printed using Photoshop software v4.0 (Adobe Systems, Inc., San Jose, Calif.). For some micrographs, the printing contrast was adjusted to provide a clearer image.
Fluorescence confocal immunocytochemistry for Ki67 was used to evaluate corneal endothelial cells for their ability to enter and complete the cell cycle (i.e., cell proliferation or mitosis). All nuclei were stained with PI. Positive Ki67 staining patterns indicated the presence of actively cycling cells and also acted as markers for specific phases of the cell cycle. Completion of the cell cycle was determined by observation of mitotic figures stained with Ki67. Three representative confocal micrographs were taken per corneal quarter using a 40×-objective lens. An NIH Image v1.62 software program was used to count total PI-stained nuclei, total Ki67-positive cells, and cells in the G1-phase, S/G2-phase, or M-phase of the cell cycle. Cells were counted in five […] areas of each micrograph (=15 areas counted per corneal piece). Counts were averaged and the percentage of actively cycling cells and of cells in each phase of the cell cycle was calculated. Each study was conducted using corneas from 2-3 different donors. Statistical comparisons were made by a paired Student's t-test using a StatView v4.11 software program (Abacus Concepts, Inc., Berkeley, Calif.). Results reported in Table 1 were expressed as percentage of Ki67-positive cells +/−SD.

[2] = system: corneal endothelial cell-cell contacts
Experimental: as §1, with “All corneas were maintained at 37° C. in a 5% carbon dioxide, humidified atmosphere until removal for analysis of cell cycle progression.” left out

SMILES: O=C(O)CN(CCN(CC(=O)O)CC(=O)O)CC(=O)O [EDTA, ethylenediaminetetraacetic acid]
- time to complete the cell cycle after EDTA treatment (mitotic figures) ([1]; 24 hours pre-incubation, 0.2 mg/ml EDTA for 60 min, single donor): approximately 48 hrs
- Avg. % KI67 (+) Cells ([1]; EDTA 0.2 mg/ml, 30 minutes): 8.67%
- Avg. % KI67 (+) Cells ([1]; EDTA 0.2 mg/ml, 60 minutes): 11.99%
- percent of the cells stimulated to proliferate ([1]; EDTA 2.0 mg/ml for 60 minutes, after preincubation in culture medium): 16-18%
- Avg. % KI67 (+) Cells ([1]; EDTA 2.0 mg/ml, 30 minutes): 14.28%
- Avg. % KI67 (+) Cells ([1]; EDTA 2.0 mg/ml, 60 minutes): 17.18%
- percent of the cell population that entered the cell cycle ([1]; intact endothelial monolayer treated with EDTA and mitogens): around 17%
- cell cycle progression (Ki67 stained nuclei and mitotic figures) ([1]; pre-incubation in mitogen-containing medium, then EDTA, 48 hour post-incubation): did promote cell cycle progression
- proliferation (Ki67 staining) with EDTA alone ([1]; up to 2.0 mg/ml EDTA, no prior or simultaneous growth factor, post-incubated 48 hours in mitogen-containing medium): did not promote proliferation
- effect on cell-cell contacts (ZO-1 staining) ([2]; 2.0 mg/ml EDTA for 60 minutes): caused cells to become rounded with only thin cytoplasmic strands connecting adjacent cells
- percent of treated cells with interrupted cell-contacts ([2]; corneal endothelial cells exposed to EDTA): at least 15%
